# Experimental data taken from patent publication US20250313563A1, “GLYCOGEN SYNTHASE KINASE 3 INHIBITORS AND USES THEREOF” (The Broad Institute, Inc., priority 2022, published 2025).
# pIC50: −log10 of the molar value. Where two headings read alike, the source gives them in different places.
# Key:
# [1] = molecular target: GSK3b (GST-full length GSK3b) (Homo sapiens (Human), UniProt P49841); assay: GSK3b TR-FRET kinase assay; assay type: biochemical
# Summary of the method: (§1)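 In this time-resolved FRET format, kinase reactions contained 200 nM biotinylated, S645-phosphorylated glycogen synthase 631-650 peptide and either isoform-specific ATP (2 μM GSK3b, 4 μM GSK3α) or 1 mM ATP. They were quenched with EDTA after 100 min at ambient temperature. Inhibition curves gave IC50 values.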
# [2] = molecular target: GSK3α (GST-full length GSK3α) (Homo sapiens (Human), UniProt P49840); assay: GSK3α TR-FRET kinase assay; assay type: biochemical
# Summary of the method: as §1
# [3] = 1 nM GSK3b, 2 μM ATP, 30 minute preincubation, geometric mean, read-out: GSK3-B TR-FRET BIOCHEMICAL (TR-FRET), GMean, IC50
# [4] = 1 nM GSK3α, 4 μM ATP, 30 minute preincubation, geometric mean, read-out: GSK3-A TR-FRET BIOCHEMICAL (TR-FRET), GMean, IC50
# [5] = 1 nM GSK3b, 2 μM ATP, 30 minute preincubation, read-out: GSK3-B TR-FRET BIOCHEMICAL (TR-FRET), IC50
# [6] = 1 nM GSK3α, 4 μM ATP, 30 minute preincubation, read-out: GSK3-A TR-FRET BIOCHEMICAL (TR-FRET), IC50
# [7] = read-out: GSK3-B (TR-FRET 1 mM ATP), GMean, IC50, 1 mM ATP, geometric mean
# [8] = read-out: GSK3-A (TR-FRET 1 mM ATP), GMean, IC50, 1 mM ATP, geometric mean
# [9] = 1 nM GSK3b, 2 μM ATP, 30 minute preincubation, Table 16, read-out: GSK3-B TR-FRET BIOCHEMICAL (TR-FRET)
# [10] = 1 nM GSK3α, 4 μM ATP, 30 minute preincubation, Table 16, read-out: GSK3-A TR-FRET BIOCHEMICAL (TR-FRET)
# [11] = GSK3-B (TR-FRET 1 mM ATP), GMean, IC50, 1 mM ATP, geometric mean
# [12] = GSK3-A (TR-FRET 1 mM ATP), GMean, IC50, 1 mM ATP, geometric mean
# GSK3b (GST-full length GSK3b), sequence (P49841 whole entry, canonical isoform): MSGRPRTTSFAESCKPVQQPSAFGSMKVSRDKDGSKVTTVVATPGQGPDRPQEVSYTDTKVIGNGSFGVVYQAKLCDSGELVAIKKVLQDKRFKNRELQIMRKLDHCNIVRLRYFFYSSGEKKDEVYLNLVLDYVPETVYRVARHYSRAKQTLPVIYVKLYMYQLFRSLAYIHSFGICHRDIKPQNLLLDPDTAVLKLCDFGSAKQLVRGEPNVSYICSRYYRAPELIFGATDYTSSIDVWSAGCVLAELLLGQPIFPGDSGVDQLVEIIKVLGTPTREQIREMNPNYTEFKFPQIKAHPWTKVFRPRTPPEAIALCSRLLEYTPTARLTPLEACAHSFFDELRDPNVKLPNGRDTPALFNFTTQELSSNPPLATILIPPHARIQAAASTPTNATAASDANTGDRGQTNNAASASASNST
# GSK3α (GST-full length GSK3α), sequence (P49840 whole entry): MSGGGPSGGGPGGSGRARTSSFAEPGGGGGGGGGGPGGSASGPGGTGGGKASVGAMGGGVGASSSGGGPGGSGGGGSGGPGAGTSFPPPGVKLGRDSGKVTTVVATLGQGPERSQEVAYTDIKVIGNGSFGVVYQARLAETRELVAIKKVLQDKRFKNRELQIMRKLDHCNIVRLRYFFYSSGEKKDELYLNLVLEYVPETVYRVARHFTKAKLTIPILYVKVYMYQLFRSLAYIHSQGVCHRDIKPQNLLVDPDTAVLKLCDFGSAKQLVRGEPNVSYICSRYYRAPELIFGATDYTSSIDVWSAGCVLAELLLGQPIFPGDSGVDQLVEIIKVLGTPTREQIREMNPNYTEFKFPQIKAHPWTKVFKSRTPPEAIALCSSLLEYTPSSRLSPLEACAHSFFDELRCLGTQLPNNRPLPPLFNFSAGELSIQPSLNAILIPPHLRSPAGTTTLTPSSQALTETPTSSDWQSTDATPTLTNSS
"pIC50 [1, 3]","pIC50 [2, 4]","pIC50 [1, 9]","pIC50 [2, 10]",SMILES,further results
,,≥ 7.00,≥ 7.00,CC[C@]1(c2cccc([C@H](C)c3ncccn3)c2)C2=C(CC(C)(C)CC2=O)Nc2n[nH]cc21 [Compound 948060],"pIC50 [1, 7]: 5.30 to 6.00; pIC50 [2, 8]: 6.00 to 7.00"
,,5.30 to 6.00,6.00 to 7.00,CCC1(c2cccc(C(C)c3ncccn3)c2)C2=C(CC(C)(C)CC2=O)Nc2n[nH]cc21 (centres unmarked) [Compound 948061],
,,5.30 to 6.00,6.00 to 7.00,CCC1(c2cccc(-c3ccnc(C)n3)c2)C2=C(CC(C)(C)CC2=O)Nc2n[nH]cc21 (centres unmarked) [Compound 948088],
,,6.00 to 7.00,≥ 7.00,CCC1(c2cccc(-c3nc(C)ncc3C)c2)C2=C(CC(C)(C)CC2=O)Nc2n[nH]cc21 (centres unmarked) [Compound 948091],
,,≥ 7.00,≥ 7.00,CCC1(c2cccc(-c3ccnc(OC)n3)c2)C2=C(CC(C)(C)CC2=O)Nc2n[nH]cc21 (centres unmarked) [Compound 948092],
,,≥ 7.00,≥ 7.00,CC1(C)CC(=O)C2=C(C1)Nc1n[nH]cc1C21CCN(S(=O)(=O)c2ccc(F)c(Cl)c2)CC1 [Compound 948117],
,,≥ 7.00,≥ 7.00,CC1(C)CC(=O)C2=C(C1)Nc1n[nH]cc1C21CCN(S(=O)(=O)c2cccc(Cl)c2F)CC1 [Compound 948118],"pIC50 [1, 11]: 6.00 to 7.00; pIC50 [2, 12]: ≥ 7.00"
,,≥ 7.00,≥ 7.00,CC1(C)CC(=O)C2=C(C1)Nc1n[nH]cc1C21CCN(S(=O)(=O)c2ccc(F)c(F)c2)CC1 [Compound 948119],
,,≥ 7.00,≥ 7.00,CC1(C)CC(=O)C2=C(C1)Nc1n[nH]cc1C21CCN(S(=O)(=O)c2cnc3cccnn23)CC1 [Compound 948120],"pIC50 [1, 11]: 5.30 to 6.00; pIC50 [2, 12]: 6.00 to 7.00"

# The remaining lines, values behind:
SMILES,"pIC50 [1, 3]","pIC50 [2, 4]","pIC50 [1, 9]","pIC50 [2, 10]",further results
CC[C@@]1(c2cccc(-c3ccnn3C)c2)C2=C(C[C@@](C)(COC)NC2=O)Nc2n[nH]cc21 [Compound 947908],< 5.30,5.30 to 6.00,,,
CC[C@]1(c2cccc(-c3ccncc3C)c2)C2=C(C[C@@]3(CCCOC3)NC2=O)Nc2n[nH]cc21 [Compound 947910],≥ 7.00,≥ 7.00,,,
CC[C@@]1(c2cccc(-c3ccncc3C)c2)C2=C(C[C@@]3(CCCOC3)NC2=O)Nc2n[nH]cc21 [Compound 947911],≥ 7.00,≥ 7.00,,,
CCC1(c2cccc(-c3ccnn3C)c2)C2=C(CC3(CCOC3)NC2=O)Nc2n[nH]cc21 (centres unmarked) [Compound 948014],< 5.30,6.00 to 7.00,,,
CCC1(c2cccc(-c3ccnn3C)c2)C2=C(CC3(CCOC3)NC2=O)Nc2n[nH]cc21 (centres unmarked) [Compound 948016],< 5.30,< 5.30,,,
CC[C@]1(c2cccc(-c3ccnn3C)c2)C2=C(CC3(CCCC3)NC2=O)Nc2n[nH]cc21 [Compound 948018],≥ 7.00,≥ 7.00,,,
CC[C@@]1(c2cccc(-c3ccnn3C)c2)C2=C(CC3(CCCC3)NC2=O)Nc2n[nH]cc21 [Compound 948019],< 5.30,5.30 to 6.00,,,
CCC1(c2cccc(-c3ccncc3Cl)c2)C2=C(CC(C)(C)NC2=O)Nc2n[nH]cc21 (centres unmarked) [Compound 948020],6.00 to 7.00,6.00 to 7.00,,,
CCC1(c2cccc(-c3ccncc3C)c2)C2=C(CC3(CCCC3)NC2=O)Nc2n[nH]cc21 (centres unmarked) [Compound 948021],< 5.30,6.00 to 7.00,,,
CC1(C)CC(=O)C2=C(C1)Nc1n[nH]cc1[C@]21COC2(CN(C(=O)Cc3ccccc3)C2)C1 [Compound 948036],,,,,"pIC50 [1, 5]: 6.00 to 7.00; pIC50 [2, 6]: 6.00 to 7.00"
CC1(C)CC(=O)C2=C(C1)Nc1n[nH]cc1[C@@]21COC2(CN(C(=O)Cc3ccccc3)C2)C1 [Compound 948037],,,,,"pIC50 [1, 5]: ≥ 7.00; pIC50 [1, 7]: ≥ 7.00; pIC50 [2, 6]: ≥ 7.00; pIC50 [2, 8]: ≥ 7.00"
Cc1ccc(C(=O)N2CC3(C2)CC2(CO3)C3=C(CC(C)(C)CC3=O)Nc3n[nH]cc32)cc1C (centres unmarked) [Compound 948038],,,,,"pIC50 [1, 7]: 6.00 to 7.00; pIC50 [2, 8]: ≥ 7.00"
Cc1ccc(C(=O)N2CC3(C2)C[C@]2(CO3)C3=C(CC(C)(C)CC3=O)Nc3n[nH]cc32)cc1C [Compound 948039],,,,,"pIC50 [1, 5]: 5.30 to 6.00; pIC50 [2, 6]: 6.00 to 7.00"
CC(=O)N1CCC2(C1)CC1(CO2)C2=C(CC(C)(C)CC2=O)Nc2n[nH]cc21 (centres unmarked) [Compound 948040],,,,,"pIC50 [1, 5]: 6.00 to 7.00; pIC50 [2, 6]: ≥ 7.00"
CCC1(c2cccc(C(C)c3ncccn3)c2)C2=C(CC(C)(C)CC2=O)Nc2n[nH]cc21 (centres unmarked) [Compound 948057],,,5.30 to 6.00,6.00 to 7.00,
